This experiment addresses HCV NS3 serine protease (Hepatitis C virus genotype 1a, UniProt P27958). The experiment in a line: Inhibition of HCV NS3 serine protease, spectrophotometric assay (5A-pNA cleavage). In kind it is biochemical. Conditions: EDVVAbuC-p-nitroanilide (5A-pNA) substrate, 30° C., pNA release at 405 nm. As to the method:
Insofar as compounds of formula (I) are able to inhibit NS3 serine protease, they are of evident clinical utility for the treatment of viral diseases, including HCV. The compounds of this invention are tested for their ability to inhibit HCV in the following spectrophotometric assay.
The spectrophotometric assays were run in a 96-well microtiter plate at 30° C., using a SpectraMax 250 reader (Molecular Devices, Sunnyvale, Calif.) with kinetic capability. Cleavage of EDVVAbuC-p-nitroanilide (5A-pNA) substrate was performed with or without NS4A in the same buffer used for HPLC assays at 30° C., and pNA release was monitored at 405 nm. […]
Kinetic constants for the rapid equilibrium ordered bisubstrate reaction were determined from rate vs. [4A], [EDVV AbuC-pNA] data by non-linear least squares fitting to equation 1 [J. F. Morrison, Biochim. […] Kii and Kis values for peptidyl inhibitors were determined from rate vs. [inhibitor], [substrate] data and fitting to the equation for mixed inhibition: rate=Vmax[S]/{Km(1+[I]/Kis)+[S](1+[I]/Kii)} The commercial program KinetAsyst (StateCollege, Pa.) was used for both procedures. Ki values were calculated from rate vs. [inhibitor] plots by a nonlinear least squares fit of the data to the equation of Morrison for tight binding competitive inhibition [J. F. Morrison, Biochim. […]

Sequence of HCV NS3 serine protease (P27958 1027-1657): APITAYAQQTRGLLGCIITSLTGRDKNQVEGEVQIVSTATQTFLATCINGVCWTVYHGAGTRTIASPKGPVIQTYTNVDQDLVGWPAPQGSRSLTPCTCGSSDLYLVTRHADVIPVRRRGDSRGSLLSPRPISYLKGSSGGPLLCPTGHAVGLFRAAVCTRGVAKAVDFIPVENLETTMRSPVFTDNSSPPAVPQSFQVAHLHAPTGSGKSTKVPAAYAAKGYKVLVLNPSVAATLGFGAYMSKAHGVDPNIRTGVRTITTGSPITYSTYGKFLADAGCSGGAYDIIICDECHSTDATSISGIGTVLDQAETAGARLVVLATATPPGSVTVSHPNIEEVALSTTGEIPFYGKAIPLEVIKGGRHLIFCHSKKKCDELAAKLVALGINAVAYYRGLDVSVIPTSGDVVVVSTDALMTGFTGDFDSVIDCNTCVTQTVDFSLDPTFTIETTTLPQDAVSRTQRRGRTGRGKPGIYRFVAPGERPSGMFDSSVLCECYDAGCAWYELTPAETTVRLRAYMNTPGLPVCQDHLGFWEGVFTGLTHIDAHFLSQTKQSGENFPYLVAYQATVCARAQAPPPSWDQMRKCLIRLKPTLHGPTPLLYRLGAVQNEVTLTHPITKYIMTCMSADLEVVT

Molecule `CCC[C@H](NC(=O)C1C[C@@H](OC(=O)N2CCc3ccccc3C2)CN1C(=O)[C@@H](NC(=O)[C@@H](NC(=O)c1cnccn1)C(C)C)C(C)C)C(=O)C(=O)N1CC(Oc2ccccc2)C1` (some centres unmarked) [Compound 9] returned a Ki of less than 1000 nM. `CCC[C@H](NC(=O)C1C[C@@H](OC(=O)N2CCc3ccccc3C2)CN1C(=O)[C@@H](NC(=O)[C@@H](NC(=O)c1cnccn1)C(C)C)C(C)C)C(=O)C(=O)N1CCC1` (some centres unmarked) [Compound 7] yielded a Ki of less than 1000 nM.

For orientation: Ki means the dissociation constant of the complex between target and ligand, obtained from inhibition or displacement.

(Values after US7494988B2, “Inhibitors of serine proteases, particularly hepatitis C virus NS3 protease” (Vertex Pharmaceuticals Incorporated, priority 2000, dated 2009).)
